The text below walks through data of patent US11306067B2, “Diphenyl substituted thiophene-2-amide derivatives and pharmaceutical compositions thereof useful as antimicrobial” (DENOVAMED INC., priority 2018, dated 2022).

In assay [1] the test system is Acinetobacter Baumannii ATCC 19606. The experiment in a line: Combination MIC of colistin for antibiotic adjuvant potential. It counts as cell-based. Also on record: unit not given beside the values. The conditions noted are these: colistin alone; Acinetobacter ATCC 19606. Here is the method: (§1) The MIC of colistin was determined against the bacteria specified below, by itself or in the presence of 1 ug/ml or 10 ug/ml of a compound disclosed herein (nd=not determined): […]

Assay [2] has as its system E. coli ATCC 25922. The description is as above. Type of assay: cell-based. Also on record: unit not given beside the values. Conditions: colistin alone. Here is the method: as §1
The test system of assay [3] is Pseudomonas aeurginosa ATCC 27853. Described as above. Type of assay: cell-based. Also on record: unit not given beside the values. Conditions: colistin alone; Pseudomonas ATCC 27853. Here is the method: as §1
For assay [4], the system named is E. coli ATCC 25922. Also on record: unit not given beside the values. Conditions: colistin alone, unexplained range under the value, probably reference range; cited from earlier work.
The subject of assay [5] is Klebsiella pneumoniae (Colistin Resistant) MMX8390. The assay is described as follows: Combination MIC of colistin for antibiotic adjuvant potential. It counts as cell-based. The conditions noted are these: colistin alone; K. pneumoniae colistin resistant MMX8390. Here is the method:
as §1

The test system of assay [6] is Klebsiella pneumoniae (Colistin Sensitive) MMX214. Described as above. Type of assay: cell-based. The conditions noted are these: colistin alone; K. pneumoniae colistin sensitive MMX214. Here is the method:
as §1

For colistin, the MIC of colistin in assay [1] was 0.25; with E. coli ATCC 25922 [2] it was 0.25; in assay [3], 0.25; in assay [5], 16; in assay [6], 2. Moreover, in the assay on E. coli ATCC 25922 [4], the “MIC of colistin, range in parentheses” value is given as “(0.25-2)”.
